Data from the supplement of paper PMC11451515.

Assays:
[1] = system: NOMO1; assay: cell viability relative to DMSO control; higher = less cytotoxic; settings: 48 h
In short: (§1)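 Viability values are per-plate percentages of DMSO wells, with background from cell-free wells. Library compounds in DMSO were pin-dosed, in an 11-point threefold series from 47 μM to 0.79 nM, onto NOMO1 or SEM (500 cells/well) or P12-Ichikawa (1000 cells/well) leukemia cells in 1536-well plates (5 μl). Those cells had been adapted for at least four passages in each medium, and CellTiter-Glo One luminescence was read after 48 h at 37°C.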

[2] = system: P12-Ichikawa; assay: as above; settings: 48 h
In short: as §1

[3] = system: SEM cells; assay: as above; settings: RPMI 5 mM glucose + 10% FBS, 48 h
In short: as §1

[4] = system: NOMO1; assay: AUC of viability dose-response curve (% viability x log10 dose units); higher = less sensitive; settings: 48 h
In short: (§2)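 Leukemia cells adapted to each medium were seeded in 1536-well plates (500 or 1000 cells/well) and given library compounds in DMSO for 48 h at 37°C. The 11 threefold doses spanned 47 μM to 0.79 nM, and CellTiter-Glo One luminescence was normalised per plate to DMSO and cell-free wells before four-parameter log-logistic fitting on log10 dose. Area under the curve was integrated with the trapezoidal rule, scaling curves above full viability and removing curves that failed quality control.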

[5] = system: P12-Ichikawa; assay: as above; settings: 48 h
In short: as §2

[6] = system: SEM cells; assay: as above; settings: 48 h
In short: as §2

[7] = HPLM + 10% dialyzed FBS, 0.000781 µM
[8] = HPLM + 10% dialyzed FBS, 0.00234 µM
[9] = HPLM + 10% dialyzed FBS, 0.00702 µM
[10] = HPLM + 10% dialyzed FBS, 0.0211 µM
[11] = HPLM + 10% dialyzed FBS, 0.0632 µM
[12] = HPLM + 10% dialyzed FBS, 0.19 µM
[13] = HPLM + 10% dialyzed FBS, 0.569 µM
[14] = HPLM + 10% dialyzed FBS, 1.71 µM
[15] = HPLM + 10% dialyzed FBS, 5.12 µM
[16] = HPLM + 10% dialyzed FBS, 15.4 µM
[17] = HPLM + 10% dialyzed FBS, 46.1 µM
[18] = RPMI 5 mM glucose + 10% FBS, 0.000781 µM
[19] = RPMI 5 mM glucose + 10% FBS, 0.00234 µM
[20] = RPMI 5 mM glucose + 10% FBS, 0.00702 µM
[21] = RPMI 5 mM glucose + 10% FBS, 0.0211 µM
[22] = RPMI 5 mM glucose + 10% FBS, 0.0632 µM
[23] = RPMI 5 mM glucose + 10% FBS, 0.19 µM
[24] = RPMI 5 mM glucose + 10% FBS, 0.569 µM
[25] = RPMI 5 mM glucose + 10% FBS, 1.71 µM
[26] = RPMI 5 mM glucose + 10% FBS, 5.12 µM
[27] = RPMI 5 mM glucose + 10% FBS, 15.4 µM
[28] = RPMI 5 mM glucose + 10% FBS, 46.1 µM
[29] = RPMI 5 mM glucose + 10% dialyzed FBS

Q: What does the source list for `C=C(C)[C@@H]1CC[C@]2(C(=O)O)CC[C@]3(C)[C@H](CC[C@@H]4[C@@]5(C)CC[C@H](O)C(C)(C)[C@@H]5CC[C@]43C)[C@@H]12`?
A: cell viability [1, 7]: 115%; cell viability [1, 8]: 124%; cell viability [1, 9]: 107%; cell viability [1, 10]: 123%; cell viability [1, 11]: 119%; cell viability [1, 12]: 110%; cell viability [1, 13]: 118%; cell viability [1, 14]: 105%; cell viability [1, 15]: 102%; cell viability [1, 16]: 94.6%; cell viability [1, 17]: 95.7%; cell viability [1, 18]: 116%; cell viability [1, 19]: 118%; cell viability [1, 20]: 121%; cell viability [1, 21]: 111%; cell viability [1, 22]: 115%; cell viability [1, 23]: 111%; cell viability [1, 24]: 119%; cell viability [1, 25]: 113%; cell viability [1, 26]: 111%; cell viability [1, 27]: 114%; cell viability [1, 28]: 97.1%; cell viability [2, 7]: 111%; cell viability [2, 8]: 123%; cell viability [2, 9]: 120%; cell viability [2, 10]: 114%; cell viability [2, 11]: 116%; cell viability [2, 12]: 111%; cell viability [2, 13]: 109%; cell viability [2, 14]: 103%; cell viability [2, 15]: 99.9%; cell viability [2, 16]: 99.1%; cell viability [2, 17]: 97.3%; cell viability [2, 18]: 108%; cell viability [2, 19]: 116%; cell viability [2, 20]: 114%; cell viability [2, 21]: 109%; cell viability [2, 22]: 116%; cell viability [2, 23]: 107%; cell viability [2, 24]: 119%; cell viability [2, 25]: 106%; cell viability [2, 26]: 97.8%; cell viability [2, 27]: 98.5%; cell viability [2, 28]: 103%; cell viability ([2]; RPMI 5 mM glucose + 10% dialyzed FBS, 0.000781 µM): 114%; cell viability ([2]; RPMI 5 mM glucose + 10% dialyzed FBS, 0.00234 µM): 121%; cell viability ([2]; RPMI 5 mM glucose + 10% dialyzed FBS, 0.00702 µM): 120%; cell viability ([2]; RPMI 5 mM glucose + 10% dialyzed FBS, 0.0211 µM): 110%; cell viability ([2]; RPMI 5 mM glucose + 10% dialyzed FBS, 0.0632 µM): 108%; cell viability ([2]; RPMI 5 mM glucose + 10% dialyzed FBS, 0.19 µM): 102%; cell viability ([2]; RPMI 5 mM glucose + 10% dialyzed FBS, 0.569 µM): 111%; cell viability ([2]; RPMI 5 mM glucose + 10% dialyzed FBS, 1.71 µM): 100%; cell viability ([2]; RPMI 5 mM glucose + 10% dialyzed FBS, 5.12 µM): 95.1%; cell viability ([2]; RPMI 5 mM glucose + 10% dialyzed FBS, 15.4 µM): 94.3%; cell viability ([2]; RPMI 5 mM glucose + 10% dialyzed FBS, 46.1 µM): 87.3%; cell viability ([3]; 0.000781 µM): 115%; cell viability ([3]; 0.00234 µM): 116%; cell viability ([3]; 0.00702 µM): 134%; cell viability ([3]; 0.0211 µM): 129%; cell viability ([3]; 0.0632 µM): 140%; cell viability ([3]; 0.19 µM): 52.4%; cell viability ([3]; 0.569 µM): 128%; cell viability ([3]; 1.71 µM): 123%; cell viability ([3]; 5.12 µM): 42.7%; cell viability ([3]; 15.4 µM): 112%; cell viability ([3]; 46.1 µM): 107%; AUC of viability dose-response curve ([4]; HPLM + 10% dialyzed FBS): 452; AUC of viability dose-response curve ([4]; RPMI 5 mM glucose + 10% FBS): 473; AUC of viability dose-response curve [4, 29]: 466; AUC of viability dose-response curve ([5]; HPLM + 10% dialyzed FBS): 445; AUC of viability dose-response curve ([5]; RPMI 5 mM glucose + 10% FBS): 461; AUC of viability dose-response curve [5, 29]: 427; AUC of viability dose-response curve ([6]; HPLM + 10% dialyzed FBS): 420; AUC of viability dose-response curve ([6]; RPMI 5 mM glucose + 10% FBS): 410; AUC of viability dose-response curve [6, 29]: 397
